From PubChem BioAssay AID1918934 (Molecular Pharmacology Branch, DTP, NCI, 2023)

Test system: 292921-168-R-J2-PDC complex spheroid viability
Assay: Anticancer human tumor 292921-168-R-J2-PDC patient-derived pancreatic carcinoma cell line growth inhibition
Settings: for IC50: curve of first compound; for viability, T/C: stronger effect = lower value
Description: Multicellular complex tumor spheroid response to LSD1 Inhibitor Iadademstat in combination with a variety of drugs and investigational agents in selected tumor cell lines
The current study was undertaken to assess response to LSD1 inhibitors in combination with standard-of-care drugs and investigational agents in solid tumor complex spheroid models as well as in the K-562 leukemia. Complex spheroids include a stromal component modeled by human endothelial cells (HUVEC) and fibroblasts modeled by human mesenchymal stem cells (MSCs). The concentration ranges selected for each drug and investigational agent were based upon clinically achievable concentrations if the clinical Cmax of the agent was known.
Compounds. The drugs and investigational agents used in this study are listed on Table 1. All of the agents used, including staurosporine (NSC755774) and gemcitabine (NSC613327), were obtained from the Developmental Therapeutics Program, NCI. FDA-approved anticancer drugs are available from the NCI at http://dtp.nci.nih.gov/branches/dscb/oncology_drugset_explanation.html. Drugs and investigational agents were >95% pure by proton nuclear magnetic resonance (NMR) and liquid chromatography/mass spectrometry (LC/MS). Stock solutions were prepared at 400x in DMSO, stored at -70 degrees C, and diluted in fresh medium prior to their use. The final concentration of DMSO in cell culture wells never exceeded 0.25% (v/v). The FDA-approved anticancer drug set is available from the Developmental Therapeutics Program at https://dtp.cancer.gov/organization/dscb/obtaining/available_plates.htm. All drugs and investigational agents were tested over a range starting from a high concentration at or near the clinical Cmax and decreasing in half-log increments. If the clinical Cmax for an agent had not been determined, the highest concentration tested was 10 microM.
Cell Lines. The patient-derived cancer cell (PDC) lines: 292921-168-R-J2-PDC, K24384-001-R-PDC, and 521955-158-R2-J5-PDC pancreatic carcinomas, 556581-035-R-J1 ovarian carcinoma, 324938-238-R-J1-PDC, 855422-203-R-J1-PDC and 883617-216-R-J1-PDC urothelial bladder carcinomas, 743489-274-T-PDC renal cell carcinoma, 138582-R-J1 Merkel cell tumor, K60290-347-R-J1 and K57222-313-R-J1-PDC glioblastomas, 653999-131-R-J2-PDC, LG0703-F948-PDC, and 349418-098-R-PDC non-small cell lung carcinomas, 885512-296-R-J2-PDC, 171881-019-R-J1-PDC breast carcinomas and 186277-243-T-J2-PDC and 233499-124-R-J2-PDC colon carcinomas were obtained from the NCI Patient-Derived Models Repository (PDMR, https://pdmr.cancer.gov). The established cell lines NCI/ADR-RES (RRID:CVCL_14520 and OVCAR-5 (RRID:CVCL_1628) ovarian carcinomas, 786-O (RRID:CVCL_1051) and A498 (RRID:CVCL_A498) renal cell carcinoma, NCI-H211 (ATCC, cat. CRL-5824; RRID:CVCL_1529), NCI-H196 (ATCC, cat. CRL-5823, RRID:CVCL_1509), SW 1271 (ATCC, cat. CRL-2177, RRID:CVCL_1716) and NCI-H1876 (ATCC, cat. CRL-5902, RRID:CVCL_1503) small cell lung carcinomas, MDA-MB-231 (RRID:CVCL_0062) and MDA-MB-468 (RRID:CVCL_0419)breast carcinomas (10-12). Pooled donor human umbilical vein endothelial cells (HUVEC, Lonza, cat. CC-2519) and human mesenchymal stem cells (hMSC, Lonza, cat. PT-2501) were purchased from Lonza (Walkersville, MD).
Cell Culture. All cells were maintained in an incubator at 37 degrees C and 5% CO2 with 95% humidity. The PDC lines were cultured according to standard operating procedures established by the NCI PDMR (https://pdmr.cancer.gov). Briefly all PDCs were thawed and cultured in Matrigel-coated flasks prepared with a working solution of 1X Ham's F-12 nutrient mix, without supplementation (Invitrogen, Waltham, MA, cat. 11765054), 100 U/mL penicillin-streptomycin (Invitrogen, cat. 15140122), and 2.5% Matrigel (Corning Inc., Corning, NY, cat. 354248) for the first three passages. […]
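Also: seven day compound exposure before luminescent viability read.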
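For viability, T/C in this document: 100% = DMSO vehicle control wells.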

## Nc1ccn(C2OC(CO)C(O)C2(F)F)c(=O)n1 (stereo not given) + NC1CC1c1ccc(-c2cccc(O)c2)cc1
Second compound 0.1 µM
  IC50: < 0.949 nM
Second compound 0.316 µM
  IC50: < 0.949 nM
Second compound 1 µM
  IC50: < 0.949 nM
Second compound 3.16 µM
  IC50: < 0.949 nM
Second compound 10 µM
  IC50: < 0.949 nM
Second compound 0.1 µM, first compound 0.000949 µM
  viability, T/C: 29.5%
Second compound 0.1 µM, first compound 0.003 µM
  viability, T/C: 10.6%
Second compound 0.1 µM, first compound 0.00949 µM
  viability, T/C: 6.54%
Second compound 0.1 µM, first compound 0.03 µM
  viability, T/C: 5.59%
Second compound 0.1 µM, first compound 0.0949 µM
  viability, T/C: 7.33%
Second compound 0.1 µM, first compound 0.3 µM
  viability, T/C: 5.81%
Second compound 0.316 µM, first compound 0.000949 µM
  viability, T/C: 30.2%
Second compound 0.316 µM, first compound 0.003 µM
  viability, T/C: 9.61%
Second compound 0.316 µM, first compound 0.00949 µM
  viability, T/C: 4.8%
Second compound 0.316 µM, first compound 0.03 µM
  viability, T/C: 5.72%
Second compound 0.316 µM, first compound 0.0949 µM
  viability, T/C: 5.73%
Second compound 0.316 µM, first compound 0.3 µM
  viability, T/C: 5.51%
Second compound 1 µM, first compound 0.000949 µM
  viability, T/C: 27%
Second compound 1 µM, first compound 0.003 µM
  viability, T/C: 8.35%
Second compound 1 µM, first compound 0.00949 µM
  viability, T/C: 5.25%
Second compound 1 µM, first compound 0.03 µM
  viability, T/C: 5.86%
Second compound 1 µM, first compound 0.0949 µM
  viability, T/C: 5.98%
Second compound 1 µM, first compound 0.3 µM
  viability, T/C: 6.01%
Second compound 3.16 µM, first compound 0.000949 µM
  viability, T/C: 27.8%
Second compound 3.16 µM, first compound 0.003 µM
  viability, T/C: 10%
Second compound 3.16 µM, first compound 0.00949 µM
  viability, T/C: 5.33%
Second compound 3.16 µM, first compound 0.03 µM
  viability, T/C: 6.76%
Second compound 3.16 µM, first compound 0.0949 µM
  viability, T/C: 5.59%
Second compound 3.16 µM, first compound 0.3 µM
  viability, T/C: 6.51%
Second compound 10 µM, first compound 0.000949 µM
  viability, T/C: 28.4%
Second compound 10 µM, first compound 0.003 µM
  viability, T/C: 11.2%
Second compound 10 µM, first compound 0.00949 µM
  viability, T/C: 7.89%
Second compound 10 µM, first compound 0.03 µM
  viability, T/C: 7.46%
Second compound 10 µM, first compound 0.0949 µM
  viability, T/C: 7.74%
Second compound 10 µM, first compound 0.3 µM
  viability, T/C: 7.58%

## O=C(c1cc(Cc2n[nH]c(=O)c3ccccc23)ccc1F)N1CCN(C(=O)C2CC2)CC1 + NC1CC1c1ccc(-c2cccc(O)c2)cc1
Second compound 0.1 µM
  IC50: 4420 nM
Second compound 0.316 µM
  IC50: 2650 nM
Second compound 1 µM
  IC50: 2180 nM
Second compound 3.16 µM
  IC50: 1390 nM
Second compound 10 µM
  IC50: 278 nM
Second compound 0.1 µM, first compound 0.0316 µM
  viability, T/C: 89.5%
Second compound 0.1 µM, first compound 0.1 µM
  viability, T/C: 104%
Second compound 0.1 µM, first compound 0.316 µM
  viability, T/C: 78.8%
Second compound 0.1 µM, first compound 1 µM
  viability, T/C: 74.3%
Second compound 0.1 µM, first compound 3.16 µM
  viability, T/C: 58.1%
Second compound 0.1 µM, first compound 10 µM
  viability, T/C: 33.1%
Second compound 0.316 µM, first compound 0.0316 µM
  viability, T/C: 75%
Second compound 0.316 µM, first compound 0.1 µM
  viability, T/C: 67.8%
Second compound 0.316 µM, first compound 0.316 µM
  viability, T/C: 67%
Second compound 0.316 µM, first compound 1 µM
  viability, T/C: 68.9%
Second compound 0.316 µM, first compound 3.16 µM
  viability, T/C: 46.6%
Second compound 0.316 µM, first compound 10 µM
  viability, T/C: 31.2%
Second compound 1 µM, first compound 0.0316 µM
  viability, T/C: 60.1%
Second compound 1 µM, first compound 0.1 µM
  viability, T/C: 69.2%
Second compound 1 µM, first compound 0.316 µM
  viability, T/C: 64.5%
Second compound 1 µM, first compound 1 µM
  viability, T/C: 64.5%
Second compound 1 µM, first compound 3.16 µM
  viability, T/C: 43.1%
Second compound 1 µM, first compound 10 µM
  viability, T/C: 32.3%
Second compound 3.16 µM, first compound 0.0316 µM
  viability, T/C: 64.5%
Second compound 3.16 µM, first compound 0.1 µM
  viability, T/C: 60.1%
Second compound 3.16 µM, first compound 0.316 µM
  viability, T/C: 63%
Second compound 3.16 µM, first compound 1 µM
  viability, T/C: 54.1%
Second compound 3.16 µM, first compound 3.16 µM
  viability, T/C: 39%
Second compound 3.16 µM, first compound 10 µM
  viability, T/C: 32.8%
Second compound 10 µM, first compound 0.0316 µM
  viability, T/C: 61.3%
Second compound 10 µM, first compound 0.1 µM
  viability, T/C: 51.2%
Second compound 10 µM, first compound 0.316 µM
  viability, T/C: 53.6%
Second compound 10 µM, first compound 1 µM
  viability, T/C: 42.2%
Second compound 10 µM, first compound 3.16 µM
  viability, T/C: 34%
Second compound 10 µM, first compound 10 µM
  viability, T/C: 29.6%
